Results published in publication PMC12606622, “Assessment of the Binding Patterns for Endocrine Disrupting Chemicals in Complex with Estrogen and Androgen Receptors by Leveraging the Asclepios Enalos KNIME Nodes” (Journal of Chemical Information and Modeling, 2025).
Read-outs that look alike come from different tables or passages of the source.

Legend:
human ERα (ESR1) = molecular target: T1, human ERα (ESR1) (Homo sapiens, UniProt P03372); test: ERα mammalian one-hybrid reporter gene assay in transiently transfected HEK293 cells; assay type: cell-based; conditions: for E max [FC]: fold change vs 0.1% DMSO, at conc. BPA 10, BPF 10, BPS 30, ZEA 0.1 μM
T1 sequence (P03372 251-595): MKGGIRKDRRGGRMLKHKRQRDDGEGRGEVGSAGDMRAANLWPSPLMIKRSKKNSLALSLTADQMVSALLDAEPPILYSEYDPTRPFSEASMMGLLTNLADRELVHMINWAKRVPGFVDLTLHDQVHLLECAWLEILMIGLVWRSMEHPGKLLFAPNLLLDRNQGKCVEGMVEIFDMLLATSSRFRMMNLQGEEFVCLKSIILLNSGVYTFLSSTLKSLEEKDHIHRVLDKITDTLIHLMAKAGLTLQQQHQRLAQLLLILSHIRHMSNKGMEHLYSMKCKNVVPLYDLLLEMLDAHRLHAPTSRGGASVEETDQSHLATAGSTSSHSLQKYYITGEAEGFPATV
Procedure: (§1) HEK293 cells (ACC305, DSMZ, Braunschweig, Germany) were cultivated at 37 °C in 5% CO2 in DMEM supplemented with 10% FBS, 2 mM L-glutamine, 1 mM sodium pyruvate, 100 U/mL penicillin, and 100 μg/mL streptomycin. For exposure studies, cells were cultivated in phenol red-free DMEM, supplemented with 1% dextran-coated charcoal-treated FBS.
Per well of a 96-well plate, a plasmid DNA mixture consisting of 0.26 μg of pGL4-G5, 0.04 μg of pM-ESR1 (251–495), and 0.005 μg of pGL4.75 [hRluc/CMV] was diluted with 150 mM NaCl to a final volume of 25 μL. […] Aliquot (0.6 μL) of 1 mg/mL PEI MAX 40K solution was diluted to 25 μL with 150 mM NaCl. The diluted PEI MAX 40K was added to the diluted DNA mixture, and the mixture was incubated at room temperature for 15 min. In parallel, HEK 293 cells were adjusted to 40,000 cells in 200 μL of culture medium per well. The transfection mixture (50 μL) was added to the cell suspension, gently mixed, and pipetted into a well of a 96-well plate. The next day, the transfected cells were treated with chemicals for 24 h before cell lysis with 50 μL per well of passive lysis buffer (Promega). Firefly and Renilla luciferase activities were measured as described previously. Results were normalized for transfection efficiency by dividing firefly luciferase activity by Renilla luciferase activity, measured from the same well. Assays were performed in technical triplicate in each independent experiment. […] Concentration response curves were fitted with nonlinear regression using the formula with a variable slope (four parameters) or the formula with a standard slope (three parameters) of GraphPad Prism 10.4.1 (GraphPad Software, Boston, MA, USA), as indicated in the respective figure legends.
ERα mammalian one-hybrid assays were executed in transiently transfected HEK293 cells, which were treated afterward for 24 h with the indicated concentrations of chemicals. Data are presented as a mean ± SD fold change (n ≥ 3 independent experiments) with respect to the normalized reporter gene activity of cells treated with 0.1% DMSO only.

human AR = molecular target: T2, human AR (Homo sapiens, UniProt P10275); assay type: cell-based; conditions: for % residual agonist activity: at 30 μM, 3 nM 11-ketoDHT only = 100%
T2 sequence (P10275 640-920): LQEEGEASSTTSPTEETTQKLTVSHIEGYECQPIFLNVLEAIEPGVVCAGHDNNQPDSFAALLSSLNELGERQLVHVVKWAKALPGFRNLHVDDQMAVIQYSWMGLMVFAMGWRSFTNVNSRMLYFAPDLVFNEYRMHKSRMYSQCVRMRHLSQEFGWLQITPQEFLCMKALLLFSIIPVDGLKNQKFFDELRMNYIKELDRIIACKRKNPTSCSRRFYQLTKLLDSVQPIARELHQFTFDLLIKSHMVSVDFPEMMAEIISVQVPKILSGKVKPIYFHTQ
Procedure: as §1
In the case of the N–C-terminal interaction assay of AR, the ESR1 effector plasmid was replaced by 0.02 μg each of pVP16-AR (1–503) and pM-AR (640–920). Aliquot (0.6 μL) of 1 mg/mL PEI MAX 40K solution was diluted to 25 μL with 150 mM NaCl. The diluted PEI MAX 40K was added to the diluted DNA mixture, and the mixture was incubated at room temperature for 15 min. In parallel, HEK 293 cells were adjusted to 40,000 cells in 200 μL of culture medium per well. The transfection mixture (50 μL) was added to the cell suspension, gently mixed, and pipetted into a well of a 96-well plate. The next day, the transfected cells were treated with chemicals for 24 h before cell lysis with 50 μL per well of passive lysis buffer (Promega). Firefly and Renilla luciferase activities were measured as described previously. Results were normalized for transfection efficiency by dividing firefly luciferase activity by Renilla luciferase activity, measured from the same well. Assays were performed in technical triplicate in each independent experiment. […] Concentration response curves were fitted with nonlinear regression using the formula with a variable slope (four parameters) or the formula with a standard slope (three parameters) of GraphPad Prism 10.4.1 (GraphPad Software, Boston, MA, USA), as indicated in the respective figure legends.
AR N–C-terminal interaction mammalian two-hybrid assays were run in transiently transfected HEK293 cells, which were treated afterward for 24 h with the indicated concentrations of chemicals. […] Data are presented as a mean ± SD fold change (n = 4 independent experiments) with respect to the normalized reporter gene activity of cells treated with 0.1% DMSO only. […] Data are presented as mean ± SD (n = 3 independent experiments) with respect to the normalized reporter gene activity of cells treated with 3 nM 11-ketoDHT only, which was designated as 100%. Curves were fitted with nonlinear regression using the formula with a standard slope (three parameters) of GraphPad Prism 10.4.1.

[1] = HEK293, 24 h treatment, four-parameter fit, n ≥ 3, read-out: EC50 mean (activating ERα)

SMILES	E max [FC] (human ERα (ESR1))	% residual agonist activity (human AR) [%]	EC50 (human ERα (ESR1); [1]) [µM]	further results
C[C@H]1CCCC(=O)CCC/C=C/c2cc(O)cc(O)c2C(=O)O1 [Zearalenone]	89.9	1.5		EC50 (human ERα (ESR1)): 0.0049 µM; potency fold higher than BPA (ERα activation) (human ERα (ESR1); ratio of EC50 values, vs BPA): 120 fold; potency fold higher than BPF (ERα activation) (human ERα (ESR1); ratio of EC50 values, vs BPF): 430 fold; potency fold higher than BPS (ERα activation) (human ERα (ESR1); ratio of EC50 values, vs BPS): 1060 fold; IC50 (human AR): 3.7 µM
Oc1ccc(Cc2ccc(O)cc2)cc1 [Bisphenol F]	56.1		2.1	
C[C@]12CCC(=O)C[C@@H]1CC[C@H]1[C@@H]3CC[C@H](O)[C@@]3(C)CC(=O)[C@@H]12 [11-ketoDHT, 11-Ketodihydrotestosterone, reference compound]				EC50 (human AR; agonist mode, HEK293, 24 h, n = 4, 95% CI 2.3–4.7 nM, read-out: EC50 (induction of AR N–C interaction)): 0.0033 µM
CC(C)(c1ccc(O)cc1)c1ccc(O)cc1 [Bisphenol A]	19.6	3.1		IC50 (human AR; read-out: IC50 mean (inhibiting AR)): 0.98 µM
O=S(=O)(c1ccc(O)cc1)c1ccc(O)cc1 [Bisphenol S]	48.5		5.2	
